The values that follow come from patent US20200261419A1, “COMBINATIONS FOR THE TREATMENT OF KIDNEY STONES” (Wake Forest University Health Sciences, priority 2015, published 2020).

pKd, pKi: −log10 of the molar value.

The target of experiment [1] is T1, recombinant, human liver GO (the HAO1 gene product) (Homo sapiens, UniProt Q9UJM8).
T1 sequence (Q9UJM8 1-370): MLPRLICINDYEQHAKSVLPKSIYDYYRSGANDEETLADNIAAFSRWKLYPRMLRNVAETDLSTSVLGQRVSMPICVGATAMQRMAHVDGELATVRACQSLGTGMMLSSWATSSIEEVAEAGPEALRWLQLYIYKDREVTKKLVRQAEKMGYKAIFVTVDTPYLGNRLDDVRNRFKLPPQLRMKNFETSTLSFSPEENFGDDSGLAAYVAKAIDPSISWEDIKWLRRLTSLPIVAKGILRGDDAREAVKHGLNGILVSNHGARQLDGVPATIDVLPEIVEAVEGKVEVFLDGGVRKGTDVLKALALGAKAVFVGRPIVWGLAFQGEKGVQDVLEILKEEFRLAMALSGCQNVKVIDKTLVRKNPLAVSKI
Kind of experiment: GO inhibition, coupled DCIP assay. The format is biochemical. The note with it: 37° C., 100 mM potassium phosphate pH 7.5, 75 μM DCIP, 3 mM glycolate; read-out: apparent Ki. As for the experimental part:
Testing of GO inhibitors. The inhibition of recombinant, human liver GO (the HAO1 gene product) is readily determined by a coupled assay that contains 2,6-dichloroindophenol (DCIP) (Murray et al. Biochemistry 47, 2439-2449, 2008). Briefly, GO is pre-incubated at 37° C. with or without inhibitor in 100 mM potassium phosphate pH 7.5 (0.1% DMSO final) for […]. An aliquot of pre-warmed DCIP and glycolate is added to start the reaction (final concentration 75 μM DCIP, 3 mM glycolate). The reaction rate is determined by monitoring the decrease at 600 nm (extinction coefficient of 21 mM^−1 cm^−1).

Another experiment addresses T2, human HYPDH (Homo sapiens, UniProt Q9UF12).
T2 construct: Only the constructs containing the residues 147-515 and 156-515 were >96% loaded with FAD+ and active; made in house; host or cells: Escherichia coli
T2 sequence (Q9UF12 71-439 limits assumed): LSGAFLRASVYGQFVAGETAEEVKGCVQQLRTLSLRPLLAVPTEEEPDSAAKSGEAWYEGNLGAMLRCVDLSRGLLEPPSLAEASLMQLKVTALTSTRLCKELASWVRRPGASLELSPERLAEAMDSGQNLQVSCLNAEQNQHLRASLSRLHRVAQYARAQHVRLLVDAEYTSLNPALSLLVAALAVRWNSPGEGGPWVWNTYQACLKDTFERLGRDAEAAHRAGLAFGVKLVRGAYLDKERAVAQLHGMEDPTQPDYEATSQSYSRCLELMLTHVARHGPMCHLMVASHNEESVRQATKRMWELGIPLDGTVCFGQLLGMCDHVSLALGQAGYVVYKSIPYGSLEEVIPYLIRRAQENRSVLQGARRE
In words: Anaerobic titration of the FAD spectrum of HYPDH. The format is binding.

For orientation: pKi means −log10 of the Ki, conventionally taken in molar units. For `CCCCCCCCCCCCSc1snnc1C(=O)O` [CDST], the pKi in experiment [1] was roughly 7.82.

As usually defined, the pKd is −log10 of the Kd, conventionally taken in molar units. The low end stands for a high Kd, the high end for a low Kd. `O=C(O)[C@@H]1C[C@@H](O)CN1` [Hyp, Hydroxyproline] showed a negative logarithm of the Kd (pKd) at human HYPDH of 3.90.
